This note sets out measurements from doi:10.1101/705327v1 (biorxiv, 2019).

Format in all cases: biochemical
The target in experiment [1] is T1, recombinant mouse Acot13 (Mus musculus, UniProt Q9CQR4).
T1 sequence (Q9CQR4 1-140): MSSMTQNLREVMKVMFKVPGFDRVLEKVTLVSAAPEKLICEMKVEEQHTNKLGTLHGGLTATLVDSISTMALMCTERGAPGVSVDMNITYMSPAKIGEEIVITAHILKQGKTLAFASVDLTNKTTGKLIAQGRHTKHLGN
Briefly: thioesterase activity assay. The settings on record: read-out: % inhibition at 10 mM.

The target in experiment [2] is T2, Acot2 (Mus musculus, UniProt Q9QYR9).
T2 sequence (Q9QYR9 43-453): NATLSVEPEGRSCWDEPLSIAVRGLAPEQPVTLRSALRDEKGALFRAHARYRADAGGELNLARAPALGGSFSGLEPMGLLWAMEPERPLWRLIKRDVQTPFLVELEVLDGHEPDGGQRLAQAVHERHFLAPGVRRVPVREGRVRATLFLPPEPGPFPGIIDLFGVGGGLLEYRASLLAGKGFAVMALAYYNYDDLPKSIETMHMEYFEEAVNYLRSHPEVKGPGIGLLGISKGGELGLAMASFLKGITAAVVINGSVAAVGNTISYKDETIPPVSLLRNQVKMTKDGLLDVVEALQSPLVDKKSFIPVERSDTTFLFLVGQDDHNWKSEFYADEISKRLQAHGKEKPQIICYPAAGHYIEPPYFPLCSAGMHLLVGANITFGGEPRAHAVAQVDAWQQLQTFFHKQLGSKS
The experiment is described as follows: thioesterase activity in liver mitochondria overexpressing Acot2. The settings on record: read-out: % inhibition at 10 mM.

In experiment [3] the target is T1, recombinant mouse Acot13. Briefly: thioesterase activity assay.

As usually defined, the inhibition is how much of the control response was suppressed. Turning to `Nc1ncnc2c1ncn2[C@@H]1O[C@H](COP(=O)(O)OP(=O)(O)O)[C@@H](O)[C@H]1O` [ADP], the inhibition at 10000 µM in experiment [1] and in experiment [2] was around 20% in each case.

A word on the IC50: it is the midpoint of a concentration-inhibition curve. For `CC(C)(COP(=O)(O)OP(=O)(O)OC[C@H]1O[C@@H](n2cnc3c(N)ncnc32)[C@H](O)[C@@H]1OP(=O)(O)O)[C@@H](O)C(=O)NCCC(=O)NCCS` [CoA], the half-inhibitory concentration (IC50) in experiment [3] was around 35 µM.

In the case of `Nc1ncnc2c1ncn2[C@@H]1O[C@H](COP(=O)(O)OP(=O)(O)OP(=O)(O)O)[C@@H](O)[C@H]1O` [ATP], the inhibition at 10000 µM in experiment [1] and in experiment [2] was around 20% each time.
